# Species: Rattus norvegicus
# Assay: Open TG-GATES - Regimen: Daily Repeat
# Assay type: toxicity, organism-based, Sprague-Dawley
# Design: regimen Daily Repeat, gender Male, age 6 weeks
# Settings: in vivo, po, 15 mg/kg, route gavage, dose level Middle; for APTT / Bas / Eos / Fbg / Hb / Ht / Lym / MCH / MCHC / MCV / Mono / Neu / PT / Plat / RBC / Ret / WBC: tissue Blood; for LIVER: tissue Liver; for A/G / ALP / ALT / AST / BUN / CRE / Ca / Cl / DBIL / GLC / IP / K / LDH / Na / PL / RALB / TBIL / TC / TG / TP / gamma-GTP: tissue Plasma
compound,measurement,setting,value
C=C(C)[C@H]1Cc2c(ccc3c2O[C@@H]2COc4cc(OC)c(OC)cc4[C@@H]2C3=O)O1 [ROTENONE],TERMINAL_BW,"72 h, time 3 day",217.2 g
same,APTT,"72 h, time 3 day",15.9 s
same,Bas,"72 h, time 3 day",0%
same,Eos,"72 h, time 3 day",1%
same,Fbg,"72 h, time 3 day",211.8 mg/dL
same,Hb,"72 h, time 3 day",13.1 g/dL
same,Ht,"72 h, time 3 day",40.2%
same,Lym,"72 h, time 3 day",71%
same,MCH,"72 h, time 3 day",20.9 pg
same,MCHC,"72 h, time 3 day",32.7%
same,MCV,"72 h, time 3 day",63.9 fL
same,Mono,"72 h, time 3 day",7.8%
same,Neu,"72 h, time 3 day",20.4%
same,PT,"72 h, time 3 day",11.8 s
same,Plat,"72 h, time 3 day",122 x10_4/uL
same,RBC,"72 h, time 3 day",628.8 x10_4/ul
same,Ret,"72 h, time 3 day",6.1%
same,WBC,"72 h, time 3 day",99.8 x10_2/uL
same,LIVER,"72 h, time 3 day",10.7 g
same,A/G,"72 h, time 3 day",2.2
same,ALP,"72 h, time 3 day",1449.2 IU/L
same,ALT,"72 h, time 3 day",37.8 IU/L
same,AST,"72 h, time 3 day",70.6 IU/L
same,BUN,"72 h, time 3 day",17 mg/dL
same,CRE,"72 h, time 3 day",0.4 mg/dL
same,Ca,"72 h, time 3 day",11.8 mg/dL
same,Cl,"72 h, time 3 day",104.2 meq/L
same,DBIL,"72 h, time 3 day",0.014 mg/dL
same,GLC,"72 h, time 3 day",188.4 mg/dL
same,IP,"72 h, time 3 day",7.3 mg/dL
same,K,"72 h, time 3 day",4.3 meq/L
same,LDH,"72 h, time 3 day",117 IU/L
same,Na,"72 h, time 3 day",141.8 meq/L
same,PL,"72 h, time 3 day",149.8 mg/dL
same,RALB,"72 h, time 3 day",3.7 g/dL
same,TBIL,"72 h, time 3 day",0.038 mg/dL
same,TC,"72 h, time 3 day",79.2 mg/dL
same,TG,"72 h, time 3 day",104.8 mg/dL
same,TP,"72 h, time 3 day",5.5 g/dL
same,gamma-GTP,"72 h, time 3 day",0.6 IU/L
same,TERMINAL_BW,"[…], time 7 day",254.3 g
same,TERMINAL_BW,"[…], time 14 day",305.1 g
same,TERMINAL_BW,"[…], time 28 day",389.3 g
same,APTT,"[…], time 7 day",17 s
same,Bas,"[…], time 7 day",0%
same,Eos,"[…], time 7 day",1%
same,Fbg,"[…], time 7 day",237.8 mg/dL
same,Hb,"[…], time 7 day",13.3 g/dL
same,Ht,"[…], time 7 day",40.4%
same,Lym,"[…], time 7 day",74.2%
same,MCH,"[…], time 7 day",20.6 pg
same,MCHC,"[…], time 7 day",32.8%
same,MCV,"[…], time 7 day",62.9 fL
same,Mono,"[…], time 7 day",5.8%
same,Neu,"[…], time 7 day",19.2%
same,PT,"[…], time 7 day",11.4 s
same,Plat,"[…], time 7 day",140.2 x10_4/uL
same,RBC,"[…], time 7 day",643.4 x10_4/ul
same,Ret,"[…], time 7 day",5%
same,WBC,"[…], time 7 day",113.4 x10_2/uL
same,APTT,"[…], time 14 day",15.6 s
same,Bas,"[…], time 14 day",0%
same,Eos,"[…], time 14 day",1%
same,Fbg,"[…], time 14 day",240.8 mg/dL
same,Hb,"[…], time 14 day",13.8 g/dL
same,Ht,"[…], time 14 day",41.7%
same,Lym,"[…], time 14 day",75.2%
same,MCH,"[…], time 14 day",20.6 pg
same,MCHC,"[…], time 14 day",33%
same,MCV,"[…], time 14 day",62.3 fL
same,Mono,"[…], time 14 day",3.8%
same,Neu,"[…], time 14 day",20.2%
same,PT,"[…], time 14 day",11.5 s
same,Plat,"[…], time 14 day",130 x10_4/uL
same,RBC,"[…], time 14 day",670.4 x10_4/ul
same,Ret,"[…], time 14 day",3.8%
same,WBC,"[…], time 14 day",127.2 x10_2/uL
same,APTT,"[…], time 28 day",18 s
same,Bas,"[…], time 28 day",0%
same,Eos,"[…], time 28 day",1.2%
same,Fbg,"[…], time 28 day",196.8 mg/dL
same,Hb,"[…], time 28 day",14.9 g/dL
same,Ht,"[…], time 28 day",45.4%
same,Lym,"[…], time 28 day",77.8%
same,MCH,"[…], time 28 day",18.9 pg
same,MCHC,"[…], time 28 day",32.8%
same,MCV,"[…], time 28 day",57.7 fL
same,Mono,"[…], time 28 day",5%
same,Neu,"[…], time 28 day",16.2%
same,PT,"[…], time 28 day",12.5 s
same,Plat,"[…], time 28 day",126.2 x10_4/uL
same,RBC,"[…], time 28 day",786 x10_4/ul
same,Ret,"[…], time 28 day",1.8%
same,WBC,"[…], time 28 day",111.5 x10_2/uL
same,LIVER,"[…], time 7 day",13 g
same,LIVER,"[…], time 14 day",14.1 g
same,LIVER,"[…], time 28 day",17.3 g
same,A/G,"[…], time 7 day",2.2
same,ALP,"[…], time 7 day",1376.6 IU/L
same,ALT,"[…], time 7 day",35.4 IU/L
same,AST,"[…], time 7 day",67 IU/L
same,BUN,"[…], time 7 day",17.2 mg/dL
same,CRE,"[…], time 7 day",0.4 mg/dL
same,Ca,"[…], time 7 day",11.5 mg/dL
same,Cl,"[…], time 7 day",103.2 meq/L
same,DBIL,"[…], time 7 day",0.016 mg/dL
same,GLC,"[…], time 7 day",198.6 mg/dL
same,IP,"[…], time 7 day",7.4 mg/dL
same,K,"[…], time 7 day",4.3 meq/L
same,LDH,"[…], time 7 day",110.8 IU/L
same,Na,"[…], time 7 day",140.4 meq/L
same,PL,"[…], time 7 day",150.6 mg/dL
same,RALB,"[…], time 7 day",3.8 g/dL
same,TBIL,"[…], time 7 day",0.036 mg/dL
same,TC,"[…], time 7 day",82.4 mg/dL
same,TG,"[…], time 7 day",105.2 mg/dL
same,TP,"[…], time 7 day",5.6 g/dL
same,gamma-GTP,"[…], time 7 day",1 IU/L
same,A/G,"[…], time 14 day",2.1
same,ALP,"[…], time 14 day",1261.6 IU/L
same,ALT,"[…], time 14 day",36.2 IU/L
same,AST,"[…], time 14 day",68.4 IU/L
same,BUN,"[…], time 14 day",18.4 mg/dL
same,CRE,"[…], time 14 day",0.4 mg/dL
same,Ca,"[…], time 14 day",11.6 mg/dL
same,Cl,"[…], time 14 day",105 meq/L
same,DBIL,"[…], time 14 day",0.01 mg/dL
same,GLC,"[…], time 14 day",188.6 mg/dL
same,IP,"[…], time 14 day",6.9 mg/dL
same,K,"[…], time 14 day",4.4 meq/L
same,LDH,"[…], time 14 day",103.6 IU/L
same,Na,"[…], time 14 day",139.6 meq/L
same,PL,"[…], time 14 day",140 mg/dL
same,RALB,"[…], time 14 day",3.9 g/dL
same,TBIL,"[…], time 14 day",0.028 mg/dL
same,TC,"[…], time 14 day",77.4 mg/dL
same,TG,"[…], time 14 day",95.2 mg/dL
same,TP,"[…], time 14 day",5.7 g/dL
same,gamma-GTP,"[…], time 14 day",1 IU/L
same,A/G,"[…], time 28 day",2
same,ALP,"[…], time 28 day",1146.8 IU/L
same,ALT,"[…], time 28 day",29.2 IU/L
same,AST,"[…], time 28 day",62 IU/L
same,BUN,"[…], time 28 day",19.5 mg/dL
same,CRE,"[…], time 28 day",0.4 mg/dL
same,Ca,"[…], time 28 day",10.9 mg/dL
same,Cl,"[…], time 28 day",105.2 meq/L
same,DBIL,"[…], time 28 day",0.01 mg/dL
same,GLC,"[…], time 28 day",186 mg/dL
same,IP,"[…], time 28 day",5.7 mg/dL
same,K,"[…], time 28 day",4.5 meq/L
same,LDH,"[…], time 28 day",124.8 IU/L
same,Na,"[…], time 28 day",141 meq/L
same,PL,"[…], time 28 day",150.8 mg/dL
same,RALB,"[…], time 28 day",3.9 g/dL
same,TBIL,"[…], time 28 day",0.0325 mg/dL
same,TC,"[…], time 28 day",68.5 mg/dL
same,TG,"[…], time 28 day",180.2 mg/dL
same,TP,"[…], time 28 day",5.9 g/dL
same,gamma-GTP,"[…], time 28 day",1 IU/L

# Source: ChEMBL document CHEMBL3885861, “Open TG-GATES”
